The results in this text go back to patent US20040219626A1, “Method for identifying fungicidally active compounds” (priority 2002, published 2004).

The target of series [1] is farnesyl-pyrophosphate synthase (Saccharomyces cerevisiae, UniProt P08524). The experiment in a line: farnesyl-pyrophosphate synthase inhibition assay (coupled assay, malachite green, 384-well MTP). In kind it is biochemical. To be noted: read-out: p150 (converted). The text has this:
A preferred method exploits the fact that two pyrophosphate molecules are liberated in the farnesyl-pyrophosphate synthase reaction. The activity, or the decrease or increase in activity, of the polypeptide according to the invention can thus be determined by enzymatically cleaving the pyrophosphate by means of inorganic pyrophosphatase and subsequently detecting the orthophosphate which has been liberated, using a phosphate detection reagent. The lower, or inhibited, activity of the polypeptide according to the invention is monitored with reference to the photospectrometric determination of the decrease or increase, of the orthophosphate which has been liberated. The concentration of phosphate which has been liberated can then be determined with a phosphate detection reagent at an absorption maximum at 620 nm.
The measurement can also be carried out in formats conventionally used for HTS or UHTS assays, for example in microtitre plates, into which for example a total volume of 5 to 50 μl is introduced per reaction or per well and the individual components are present in one of the above-stated final concentrations (cf. Example 2). […] The polypeptide according to the invention is then added in the abovementioned assay buffer containing the auxiliary enzyme inorganic pyrophosphatase, which is required for the coupled assay, thus starting the reaction. The mixture is then incubated for example for up to 40 minutes at a suitable temperature, and the increase in absorption is measured at 620 nm.
A further measurement is carried out in a corresponding mixture, but without addition of a candidate molecule and without addition of a polypeptide according to the invention (negative control). Another measurement, in turn, is carried out in the absence of a candidate molecule, but in the presence of the polypeptide according to the invention (positive control). The negative and the positive controls thus provide the reference values for the mixtures in the presence of a candidate molecule.
A pI50 value of 8, for example, corresponds to half the maximum inhibition of the enzyme at a concentration of 10 nM.
384-well microtitre plates from Greiner were used for identifying farnesyl-pyrophosphate synthase modulators.
The negative control was pipetted into the first column.
The positive control was pipetted into the second column.
A test substance in a concentration of 2 μM in DMSO was introduced into the remaining columns, 5 μl of the assay buffer being used for diluting the substance to a volume of. […] This was followed by incubation at room temperature for 40 minutes. The reaction was subsequently quenched by addition of 50 μl of malachite green solution (three parts of 0.025% malachite green solution (in water) were mixed with one part of 2% ammonium heptamolybdate solution (in 4 M HCl) and 39 parts of this solution were mixed with one part of 7.5% Tween 20 (in water) immediately prior to testing) and the mixture was incubated for 90 minutes at room temperature. The orthophosphate generated during the reaction was measured by determining the absorption at 620 nm in a Tecan […]luor Plus suitable for MTPs.

The subject of series [2] is Phytophthora infestans (Plant affected: tomato). In kind it is in vivo. The following applies: concentration at which an efficacy of 50% was achieved, protective.
Series [3] has as its system Alternaria solani (plant affected: tomato). The experiment in a line: protective action for plants (spray, inoculation). It counts as in vivo. The following applies: concentration for 50% efficacy. The protocol: (§1) The effect, on fungi, of compounds found with the aid of a method according to the invention can also be assayed by testing their protective action for plants. To this end a suitable active substance preparation is prepared. For example 1 part by weight of active substance is mixed with, for example, 24.5 parts by weight of acetone and 24.5 parts by weight of dimethylformamide and 1 part by weight of alkylaryl polyglycol ether as emulsifier, and the concentrate is diluted to the desired concentration.
(§2) To test for protective action, young plants are sprayed with the active substance preparation. After the spray coating has dried on, the plants are inoculated with an aqueous suspension (conidia suspension) of a fungus and then remain for 1 day in an incubation chamber at approximately 20° C. and 100% relative atmospheric humidity.
(§3) The plants are then placed in a greenhouse at approx. 12° C. and a relative atmospheric humidity of approx. 90%.
(§4) The test is evaluated 1 to 12 days after the inoculation. 0% means an efficacy which corresponds to that of the control, while an efficacy of 100% means that no disease is observed.
(§5) The examples in question can be seen from the fact that an affected plant has been stated.

Series [4] concerns Erysiphe graminis (plant affected: barley). The series is described as follows: protective action for plants (spray, inoculation). It counts as in vivo. To be noted: concentration for 50% efficacy. How it is done:
as §1, §2, §3, §4, §5

Series [5] concerns Leptosphaeria nodorum (plant affected: wheat). The experiment in a line: protective action for plants (spray, inoculation). In kind it is in vivo. To be noted: concentration for 50% efficacy. How it is done:
as §1, §2, §3, §4, §5

For series [6], the system named is Sphaerotheca fuliginea (plant affected: cucumber). The experiment in a line: protective action for plants (spray, inoculation). It counts as in vivo. The following applies: concentration for 50% efficacy. How it is done: as §1, §2, §3, §4, §5
Series [7] deals with Pyricularia oryzae (plant affected: rice). In kind it is in vivo. The following applies: concentration for 50% efficacy, protective.
The target of series [8] is yeast farnesyl-pyrophosphate synthase (Saccharomyces cerevisiae, UniProt P08524). To be noted: substrate of yeast farnesyl-pyrophosphate synthase.
Series [9] concerns Phytophthora infestans (Plant affected: barley). In kind it is in vivo. To be noted: concentration at which an efficacy of 50% was achieved, protective.
Substrate in series [10]: C=C(C)CCO[P@@](=O)(O)OP(=O)(O)O
The experiment in a line: purified protein, by the assay type. The following applies: other: substrate of yeast farnesyl-pyrophosphate synthase.

For `COc1ccc(CN(CC(C)(C)CN)C(=O)c2cccc(C)c2)cc1-c1ccc(N2CCC(Cc3ccccc3)CC2)c(NC(=O)c2cccs2)c1` [Example 5], the IC50 in series [1] is 25.1 µM. In addition, the ED50 in [2], in series [3], in series [4], in series [5], in series [6] and in series [7] was 548 ppm in each case.

With `CC(C)=CCOP(=O)(O)OP(=O)(O)O` [dimethylallyl pyrophosphate], the Km – broadly, the substrate concentration at which the rate is half of its maximum – in series [8] is 36 µM.

In the case of `CC(=O)[n+]1ccc(-c2cc[n+](C(C)=O)cc2)cc1` [Example 1], the IC50 in [1] is 7.41 µM.

For `CC(=O)Nc1nc(-c2ccccc2OCC(N)=O)cc(-c2cccc(NC(=O)c3ccc([N+](=O)[O-])cc3)c2)c1C#N` [Example 2], in [1], the IC50 is 31.6 µM.

For `CC(Oc1ccccc1)C(=O)Nc1cc(C(=O)N[C@@H](Cc2ccccc2)C(=O)O)ccc1N1CCN(C(c2ccccc2)c2ccccc2)CC1` (some centres unmarked) [Example 3], the IC50 in series [1] is 31.6 µM. Besides, the ED50 in series [2] and in [9] was 500 ppm throughout.

With `CC(C)(CN)CN(C(=O)c1cccs1)c1ccc(-c2ccc(N3CCN(c4ccccn4)CC3)c(NC(=O)CCC3CCCC3)c2)cc1` [Example 4], the IC50 in series [1] was 39.8 µM. Moreover, the ED50 in [2] and in series [9] was 500 ppm throughout.

B1: yeast farnesyl-pyrophosphate synthase (Saccharomyces cerevisiae S288C) (protein)
chain: MASEKEIRRERFLNVFPKLVEELNASLLAYGMPKEACDWYAHSLNYNTPGGKLNRGLSVVDTYAILSNKTVEQLGQEEYEKVAILGWCIELLQAYFLVADDMMDKSITRRGQPCWYKVPEVGEIAINDAFMLEAAIYKLLKSHFRNEKYYIDITELFHEVTFQTELGQLMDLITAPEDKVDLSKFSLKKHSFIVTFKTAYYSFYLPVALAMYVAGITDEKDLKQARDVLIPLGEYFQIQDDYLDCFGTPEQIGKIGTDIQDNKCSWVINKALELASAEQRKTLDENYGKKDSVAEAKCKKIFNDLKIEQLYHEYEESIAKDLKAKISQVDESRGFKADVLTAFLNKVYKRSK
For B1, in series [10], the Km is 49 µM.
